In one data set the target is T1, human glucagon receptor (Homo sapiens, UniProt P47871).
T1 construct: host or cells: Either human liver membranes or membranes of an unnamed recombinant cell line
Kind of data set: Human glucagon receptor binding assay. As to conditions: displacement of [125I]glucagon from human glucagon receptor; read-out: Hu IC50. On the procedure: Compounds provided herein are dissolved in a suitable solvent (e.g., dimethylsulfoxide) at a concentration of 10 mM and then diluted in buffer (e.g., 50 mM Hepes, pH 7.4, 5 mM MgCl2, 1 mM CaCl2, and 0.2% BSA) to concentrations ranging from 1 nM to 100 μM. Compounds (20 μL/well) and [^125I]glucagon at the final concentration of 0.125 nM (20 μl/well) (Perkin Elmer) are added to and mixed in wells of a 96-well plate (Costar, Corning) containing 120 μL of buffer. Next, an appropriate aliquot of a membrane preparation containing the human glucagon receptor (isolated from human liver samples or obtained from a recombinant cell line) is added to the wells. The binding mixtures are incubated for 2 hrs at room temperature. In the meantime, a MultiScreen 96-well filter plate (Millipore) is treated with 200 μL of the buffer, which is vacuumed through the filter just before the binding mixtures are transferred to the plate. At the end of incubation, binding mixtures are transferred to the wells of the MultiScreen 96-well filter plate and filtered through by applying vacuum. The plate is washed once with 200 μL per well of the buffer, and the filters are dried and counted using a gamma counter.
The column marked “stereo” indicates whether the tested compound tested was racemic or the R-isomer (rac=racemic).

A short description of data set [1]: Single ascending dose study, pharmacokinetics. It is filed as in vivo, human. The note with it: 2 to 480 mg oral, human subjects. On the procedure:
(§1) Oral doses of IIIa were administered to normal healthy volunteers (NHV) and subjects with type 2 diabetes mellitus (T2DM). A single center, randomized, double-blind, placebo-controlled single ascending dose study was done in both NHV (n=48) and T2DM subjects (n=8). Dose escalation only occurred after review of safety and tolerability data from previous dose levels (n=8/cohort; 2-placebo & 6-IIIa). Dosing of the T2DM cohort was initiated only after the equivalent dose had been administered to NHV and safety data had been reviewed. All subjects were administered IIIa in the morning after an overnight fast with the exception of the NHV in the 40 mg cohort. NHV subjects in the 40 mg cohort initially received IIIa in a fasted state. Following a 3 week washout period, IIIa was readministered after breakfast at 40 mg to determine the effects of food consumption on pharmacokinetics.
(§2) This was a single center, randomized, double-blind, placebo-controlled single ascending dose study in both normal healthy volunteers (NHV) (n=48) and subjects with type 2 diabetes mellitus (T2DM) (n=8). All subjects were administered Formula IIIa as a solution formulated with Captisol® after an overnight fast with the exception of the NHV in the 40 mg cohort. The NHV 40 mg cohort initially received Formula IIIa in a fasted state. Following a washout period, subjects received 40 mg Formula IIIa after breakfast to explore the effects of food consumption on pharmacokinetics.
Plasma levels of Formula IIIa were measured by validated LC-MS/MS method. Formula IIIa was well absorbed after oral administration with peak plasma concentrations reached approximately 5-8 hours post dose. Consistent with preclinical predictions, clearance was slow and Formula IIIa was not detected in the urine.

Data set [2] can be described thus: Single ascending dose study, safety and tolerability. The note with it: single oral doses 2 to 480 mg in NHV, 40 mg in T2DM subjects. It is filed as in vivo, human. Here is the method:
as §1, §2
In type 2 diabetes mellitus (T2DM), inappropriately elevated levels of glucagon exacerbate hyperglycemia and its associated complications. Not wishing to be bound to a particular theory, it has been observed that antagonism of glucagon action reduces blood glucose levels and hemoglobin A1c in patients with T2DM. The novel, selective, orally bioavailable glucagon receptor antagonist, Formula IIIa (below), was investigated regarding its pharmacokinetics (PK), safety, and pharmacodynamics (PD) in a first-in-human, ascending, single-dose, double blind, placebo-controlled study in normal healthy (NH) and T2DM subjects (NCT01919684).

Data set [3] in a line: Solubility in water, buffers, simulated fluids and Captisol. Type of data set: physicochemical. The note with it: thermodynamic from solid; for solubility: aqueous with cosolvent or surfactant or cyclodextrin, ambient conditions, UV after 2-3day equilibration; for solubility at 24 h: 25° C., HPLC after 24-hour equilibration. On the procedure:
Solubility of a sodium salt of Formula IIIa (below) was determined in water and at various pH values and simulated intestinal fluids using HPLC and UV analysis with and without modified beta-cyclodextrin (Captisol®). Phase solubility was used to estimate the Captisol®: Formula IIIa binding constant. The influence of Captisol® on oral absorption was modelled as shown below. The effect of Captisol® on solution stability was determined by HPLC. Plasma levels of Formula IIIa were measured by LCMS/MS.

The structures appear in SMILES notation. Where a name gives a salt, the structure may show the parent alone.

T1 sequence (P47871 26-477): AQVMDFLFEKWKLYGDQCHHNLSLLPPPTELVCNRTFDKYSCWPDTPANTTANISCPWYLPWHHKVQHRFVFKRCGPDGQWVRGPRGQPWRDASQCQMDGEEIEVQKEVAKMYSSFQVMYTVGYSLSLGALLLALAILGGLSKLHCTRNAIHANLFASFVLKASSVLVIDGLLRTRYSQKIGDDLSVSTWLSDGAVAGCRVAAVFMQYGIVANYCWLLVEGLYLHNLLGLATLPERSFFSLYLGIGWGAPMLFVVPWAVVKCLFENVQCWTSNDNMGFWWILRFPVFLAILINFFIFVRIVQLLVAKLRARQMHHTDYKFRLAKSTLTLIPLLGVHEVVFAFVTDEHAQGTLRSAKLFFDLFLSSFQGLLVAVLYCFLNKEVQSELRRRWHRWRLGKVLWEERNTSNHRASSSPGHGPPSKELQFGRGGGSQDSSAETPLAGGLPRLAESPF

As for `Cc1cc(C(F)(F)F)ccc1-c1ccc(NC(=O)C(Cc2ccc(C(=O)NCCS(=O)(=O)O)cc2)c2ccc(C3=CCC(C)(C)CC3)cc2)cc1` (racemic), the IC50 (usually the concentration that gives 50% inhibition) on human glucagon receptor was found to be 15 nM.

Take `Cc1cc(Cl)ccc1-c1ccc(NC(=O)C(Cc2ccc(C(=O)NCCS(=O)(=O)O)cc2)c2ccc(C3CCC(C(C)(C)C)CC3)cc2)cc1` (stereo not drawn): the half-maximal inhibitory concentration (IC50) at human glucagon receptor amounted to 9 nM.

`Cc1cc(C)c(C2C=CC(NC(=O)[C@H](Cc3ccc(C(=O)NCCS(=O)(=O)O)cc3)c3ccc(-c4ccc(C(C)(C)C)cc4)cc3)=CC2)c(C)c1` (stereo partly drawn) [Formula IIIa sodium salt]: the “plasma exposure versus dose” value in data set [1] is recorded as “dose dependent increases”. Besides, the tolerability entry in data set [2] is reported as “well tolerated”. For the same compound, the solubility (as a rule, the dissolved amount per volume that the medium holds) in data set [3] (15% w/v Captisol) is 11530 ± 40 µg/mL; in data set [3] (35% w/v Captisol), 32900 ± 440 µg/mL. For the same compound, the solubility at 24 h in data set [3] (simulated gastric fluid, 0.01N HCL) is 70 µg/mL; in data set [3] (simulated gastric fluid, 0.1N HCL), 60 µg/mL; in data set [3] (Fasted state simulated intestinal fluid (FaSSIF)), 210 µg/mL; in data set [3] (Fed state simulated intestinal fluid (FeSSIF)), 6540 ± 190 µg/mL; in data set [3] (Simulated gastric fluid (SGF)), 40 ± 10 µg/mL; in data set [3] (Water), 210 ± 10 µg/mL.

These data come from patent US10076504B2, “Glucagon antagonists” (Ligand Pharmaceuticals, Inc., priority 2014, dated 2018).
